Numbers after ± are expanded uncertainties.
Details: Liquid

CCOC(C)(C)C [2-ethoxy-2-methylpropane]
Twin ebulliometer
Details	vapor or sublimation pressure [kPa]
298.25 K	16.83 ± 0.042
303.13 K	20.88 ± 0.042
307.44 K	25.07 ± 0.043
312.55 K	30.91 ± 0.044
317.29 K	37.26 ± 0.045
322.74 K	45.83 ± 0.046
328.3 K	56.12 ± 0.048
333.56 K	67.49 ± 0.05
339.17 K	81.57 ± 0.053
343.23 K	93.18 ± 0.057
343.89 K	95.31 ± 0.057
344.57 K	97.44 ± 0.057
345.25 K	99.6 ± 0.057
345.92 K	101.69 ± 0.057

CC(C)OC(C)C [diisopropyl ether]
Twin ebulliometer
Details	vapor or sublimation pressure [kPa]
308.58 K	30.91 ± 0.044
313.25 K	37.26 ± 0.045
318.65 K	45.83 ± 0.046
324.17 K	56.12 ± 0.048
329.4 K	67.49 ± 0.05
334.98 K	81.57 ± 0.053
339.03 K	93.18 ± 0.055
339.73 K	95.31 ± 0.056
340.41 K	97.44 ± 0.056

CC(C)COC(C)(C)C [isobutyl tert-butyl ether]
Ebulliometric method (Recirculating still)
Details	vapor or sublimation pressure [kPa]
310.61 K	6.234 ± 0.041
317.06 K	8.426 ± 0.041
322.6 K	10.8 ± 0.041
327.65 K	13.43 ± 0.041
333.13 K	16.83 ± 0.042
338.55 K	20.88 ± 0.042
343.33 K	25.07 ± 0.043
349 K	30.91 ± 0.043
354.26 K	37.26 ± 0.044
360.31 K	45.83 ± 0.045
366.48 K	56.12 ± 0.047
372.35 K	67.49 ± 0.049
378.59 K	81.57 ± 0.051
383.13 K	93.18 ± 0.054
383.92 K	95.31 ± 0.054
384.69 K	97.44 ± 0.055
385.45 K	99.6 ± 0.055

— the NIST ThermoML archive (doi:10.1016/j.jct.2006.05.007)
